Drawing on patent US20100081825A1, “1-NAPHTHYL ALKYLPIPERIDINE DERIVATIVE” (Taisho Pharmaceutical Co Ltd, priority 2006, published 2010), this text covers IC50 for 12 compounds.

Structures can show the parent of a compound that is named as a salt.

Usually IC50 stands for the concentration at which inhibition is half-maximal.

The target in this experiment is T1, MCH1R (Homo sapiens, UniProt Q99705).
T1 construct: IC50; other: cells stably expressing non-endogenous active MCH1R; 50 nM MCH; Fluo-4 calcium, FDSS6000; list of compounds i
Description: MCH1R calcium evaluation test (FDSS assay, inhibition of MCH-induced intracellular calcium increase). Format: cell-based. Particulars: cells stably expressing non-endogenous active MCH1R; 50 nM MCH; Fluo-4 calcium, FDSS6000. The text has this: MCH1R Calcium Evaluation Test
An FDSS assay can measure the intracellular calcium concentration and can evaluate the Gq-coupled receptor activity using the calcium concentration as an index. For example, the assay can determine whether an analyte is an antagonist, an inverse agonist or an agonist for a Gq-coupled receptor. The FDSS6000™ system (Hamamatsu Photonics K.K.) is designed to perform evaluation based on functionality such as measurement of intracellular calcium for high-throughput screening. Intracellular calcium release by activation of a Gq-coupled receptor can be fluorometrically measured by incorporating a calcium indicator (such as Fluo4) into cells. On the other hand, the assay cannot measure the activation of Gi- and Go-coupled receptors, because the activation is not associated with calcium signaling pathways.
Intracellular fluorescence can be rapidly and successively measured in a 96-well microplate or a 384-well microplate using a fluorometric imaging plate reader system. FDSS6000™ can simultaneously measure fluorescence in all wells sensitively, accurately and by seconds. This system is ideal for functional analysis in cells such as monitoring of an intracellular calcium flow generated within several seconds after activation of a Gq-coupled receptor.
On the day before the test, cells stably expressing non-endogenous active MCH1R were seeded into a 96-well microplate at 3×10^4 cells per well. 100 μL per well of a medium (Dulbecco's modified Eagle medium containing 10% fetal bovine serum, 2 mM glutamine, 1 mM sodium pyruvate and 0.5 mg/mL G418, pH 7.4) was used for culture. On the day of the test, the medium was removed and an assay buffer {Hank's balanced salt solution containing 20 mM HEPES, 0.5 mM probenecid, 0.05 mg/mL amaranth and 0.2% bovine serum albumin (BSA), pH 7.4} containing 2 μM Fluo-4-AM and 0.04% Pluronic F127 was added at 100 μL per well, followed by incubation in a 5% CO2 incubator at 37° C. for one hour. Thereafter, the buffer was removed and an assay buffer containing each concentration of the test compound was newly added at 150 μL per well, followed by incubation in a 5% CO2 incubator at 37° C. for 30 minutes. An assay buffer containing each concentration of MCH was added at 50 μL per well, and transient changes in the intracellular calcium concentration induced by MCH were monitored using FDSS6000™ at Ex. 488 nm and Em. 530 nm for 180 seconds. In testing the antagonistic activity of the analyte, MCH was added to a final concentration of 50 nM. An inhibition curve was prepared with various concentrations of the analyte, and the concentration of the analyte inhibiting 50% of the increase in intracellular calcium when 50 nM MCH was added (IC50 value) was calculated using data analysis software Origin Ver. 6.
A general note: Calcium flux is commonly read through the fluorescence of an indicator in the cells.

As for `CCOCc1ccc2ccc(CN3CCC(NC(=O)c4ccc(F)c(Cl)c4)CC3)cc2c1` [Example 6, 3-chloro-N-(1-{[7-(ethoxymethyl)-2-naphthyl]methyl}piperidin-4-yl)-4-fluorobenzamide], the IC50 came out at 3.54 nM. Turning to `COCc1ccc2ccc(CN3CCC(NC(=O)c4cc(OC)cc(OC)c4)CC3)cc2c1` [Example 10, 3,5-Dimethoxy-N-(1-{[7-(methoxymethyl)-2-naphthyl]methyl}piperidin-4-yl)benzamide], the 50% inhibitory concentration (IC50) stood at 4.99 nM. As for `COCc1ccc2ccc(CN3CCC(NC(=O)c4cccc(OC)c4)CC3)cc2c1` [Example 13, 3-Methoxy-N-(1-{[7-(methoxymethyl)-2-naphthyl]methyl}piperidin-4-yl)benzamide], the figure is 10.4 nM; as for `COCCOCc1ccc2ccc(CN3CCC(NC(=O)c4cccc(OC)c4)CC3)cc2c1` [Example 26, 3-Methoxy-N-[1-({7-[(2-methoxyethoxy)methyl]-2-naphthyl}methyl)piperidin-4-yl]benzamide], 5.67 nM. As for `COc1cccc(C(=O)NC2CCN(Cc3ccc4ccc(COCCN5CCCC5)cc4c3)CC2)c1` [Example 36, 3-Methoxy-N-[1-({7-[(2-pyrrolidin-1-ylethoxy)methyl]-2-naphthyl}methyl)piperidin-4-yl]benzamide], the figure is 6.11 nM. To `COc1cccc(C(=O)NC2CCN(Cc3ccc4ccc(COCCN(C)C)cc4c3)CC2)c1` [Example 37, N-{1-[(7-{[2-(dimethylamino)ethoxy]methyl}-2-naphthyl)methyl]piperidin-4-yl}-3-methoxybenzamide] belongs 4.89 nM.

As to `COc1cccc(C(=O)NC2CCN(Cc3ccc4ccc(CNCCN5CCCC5)cc4c3)CC2)c1` [Example 48, 3-Methoxy-N-{1-[(7-{[(2-pyrrolidin-1-ylethyl)amino]methyl}-2-naphthyl)methyl]piperidin-4-yl}benzamide], the half-maximal inhibitory concentration (IC50) was 9.68 nM. As for `COc1cccc(C(=O)NC2CCN(Cc3ccc4ccc(CNCCN(C)C)cc4c3)CC2)c1` [Example 49, N-(1-{[7-({[2-(Dimethylamino)ethyl]amino}methyl)-2-naphthyl]methyl}piperidin-4-yl)-3-methoxybenzamide], the figure is 7.08 nM; as for `COc1cccc(C(=O)NC2CCN(Cc3ccc4ccc(CNCCN)cc4c3)CC2)c1` [Example 64, N-{1-[(7-{[(2-Aminoethyl)amino]methyl}-2-naphthyl)methyl]piperidin-4-yl}-3-methoxybenzamide trihydrochloride], 7.14 nM. As for `CNCCNCc1ccc2ccc(CN3CCC(NC(=O)c4cccc(OC)c4)CC3)cc2c1` [Example 67, 3-Methoxy-N-(1-{[7-({[2-(methylamino)ethyl]amino}methyl)-2-naphthyl]methyl}piperidin-4-yl)benzamide trihydrochloride], the figure is 6.51 nM. As for `COCCOCc1ccc2ccc(CN3CCC(NC(=O)c4cccc(C(C)=O)c4)CC3)cc2c1` [Example 90, 3-Acetyl-N-[1-({7-[(2-methoxyethoxy)methyl]-2-naphthyl}methyl)piperidin-4-yl]benzamide], the figure is 7.69 nM; as for `COc1cccc(C(=O)NC2CCN(Cc3ccc4ccc(CCO)cc4c3)CC2)c1` [Example 120, N-(1-{[7-(2-hydroxyethyl)-2-naphthyl]methyl}piperidin-4-yl)-3-methoxybenzamide], 7.41 nM.
